# Experimental data from patent US5908924A, “Cloning and expression of the gene encoding thermoanaerobacter ethanolicus 39E secondary-alcohol dehydrogenase and enzyme biochemical characterization” (Michigan State University, priority 1997, dated 1999).
# Entries after “also recorded” stand apart in the source; their conditions may differ. Like-named read-outs stand apart in the source and are kept apart here.
# T1: recombinant T. ethanolicus 2° Adh (Thermoanaerobacter pseudethanolicus, UniProt B0KBL1)
# T1 sequence (B0KBL1 2-353): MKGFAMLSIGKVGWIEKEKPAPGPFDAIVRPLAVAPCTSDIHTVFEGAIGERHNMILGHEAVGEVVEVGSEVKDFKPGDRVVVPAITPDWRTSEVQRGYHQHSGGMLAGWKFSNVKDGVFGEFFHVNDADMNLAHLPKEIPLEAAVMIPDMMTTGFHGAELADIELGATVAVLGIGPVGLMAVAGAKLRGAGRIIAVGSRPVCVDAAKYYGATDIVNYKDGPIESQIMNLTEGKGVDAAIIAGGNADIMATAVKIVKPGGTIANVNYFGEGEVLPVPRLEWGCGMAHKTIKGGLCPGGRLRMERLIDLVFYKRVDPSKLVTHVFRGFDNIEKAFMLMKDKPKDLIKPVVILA
# Experiments:
# [1] = molecular target: T1, recombinant T. ethanolicus 2° Adh; assay: chemical modification (DTNB, DEPC) and reactivation by DTT with metal salts or EDTA; type: biochemical, Thermoanaerobacter ethanolicus 39E; design: homotetramer; activity recovery of DTNB-inactivated enzyme with DTT plus zinc: dose or concentration left out as unconfirmed; settings: for effect on enzyme reactivation by DTT after DTNB inactivation: metal salts 0.01 mM to 1.0 mM, EDTA 0.5 mM to 3.0 mM
# Experimental: Cysteine residues were reversibly modified using dithionitrobenzoate (DTNB) at 25° C. and 60° C.. […] Histidine residues were chemically modified with diethylpyrocarbonate (DEPC) by incubation with 20 mM or 40 mM DEPC in 50 mM phosphate buffer (pH 6.0) at 25° C. for 1.0 h and the reaction was quenched by addition of 0.5×volume of 0.5 M imidazole (pH 6.5).
# [2] = molecular target: T1, recombinant T. ethanolicus 2° Adh; assay: standard 2° Adh activity assay (NADP+ reduction coupled to alcohol oxidation at 60° C.), Kmapp and Vmaxapp; settings: for Vmaxapp / Km: 60° C.; for Km: read-out: Kmapp
# Experimental: (§2) The enzyme was incubated at 55° C. for 15 min prior to activity determination unless otherwise indicated. Assays to determine Kmapp and Vmaxapp were conducted at 60° C. with substrate concentrations between 20×Kmapp and 0.2×Kmapp. Kinetic parameters were calculated from nonlinear best fits of the data to the Michaelis-Menten equation using Kinzyme software [26].
# T. brockii 2° Adh = settings: sulfhydryl modification by p-chloromercuribenzoate; cited from earlier work
# [3] = cited from earlier work; for time to complete inactivation: at 70° C.
# [4] = substrate: NC(=O)c1ccc[n+]([C@@H]2O[C@H](COP(=O)([O-])OP(=O)(O)OC[C@H]3O[C@@H](n4cnc5c(N)ncnc54)[C@H](OP(=O)(O)O)[C@@H]3O)[C@@H](O)[C@H]2O)c1; assay: purified protein, by the assay type; settings: other: 60° C.
# Experimental: as §2
# [5] = 2° Adh thermostability: residual activity after timed incubation at the desired temperatures; type: physicochemical
# Experimental: (§1) 2° Adh thermostability was measured as the residual activity after timed incubation at the desired temperatures. Thermal inactivation was stopped by incubation for 30 min at 25° C., and samples were prepared for activity assays by preincubation at 55° C. for 15 min. Incubations were performed in […] (cat. #72.733.050, Sarstedt; Newton, N.C.) using […] protein in […]. Activity was determined using the unfractionated samples. The temperature effect on enzyme activity was studied using the substrates propan-2-ol or ethanol at 10×Kmapp concentrations.
# [6] = 2° Adh activity: standard assay and temperature effect on enzyme activity (Arrhenius plots); type: biochemical; settings: for Arrhenius plot discontinuity temperature: enzyme preincubated at 0° C. or 25° C.
# Experimental: as §1
# To study the effect of enzyme preincubation temperature on enzyme reaction rates, the 2° Adh was incubated at 0° C., 25° C., or 55° C. for 15 min prior to activity determinations in the temperature range 30-90° C. Tris-HCl buffer pH values were adjusted at 25° C. to be pH 8.0 at the temperature they were used (thermal correction factor=-0.031 ΔpH °C.^-1). The statistical significance of the differences between the Arrhenius plot slopes above and below the discontinuity temperatures was determined by covariance analysis.
molecule,measurement,setting,value
[Cl-].[Na+] [NaCl],effect on enzyme reactivation by DTT after DTNB inactivation,[1],did not affect enzyme reactivation by DTT
"O[C@H](CS)[C@H](O)CS (racemic) [DTT, dithiothreitol]",recovery of initial activity of DTNB-inactivated enzyme,"[1]; 60° C., DTT, no added metal",34%
[Cl][Fe][Cl] [FeCl2],effect on enzyme reactivation by DTT after DTNB inactivation,[1],did not affect enzyme reactivation by DTT
CCO [ethanol],Vmaxapp,[2],10 U mg^-1
same,Kmapp toward the 1° alcohol relative to the 2° alcohol,[2]; higher than for propan-2-ol,~43 fold
same,Km,[2],47000 µM
NAD(H),NAD(H) dependent activity,[2],no NAD(H) dependent activity was detected
[Cl-].[Cl-].[Mg+2] [MgCl2],effect on enzyme reactivation by DTT after DTNB inactivation,[1],did not affect enzyme reactivation by DTT
[Ca+2].[Cl-].[Cl-] [CaCl2],effect on enzyme reactivation by DTT after DTNB inactivation,[1],did not affect enzyme reactivation by DTT
"CCOC(=O)OC(=O)OCC [DEPC, diethylpyrocarbonate]",enzyme inactivation by modification of histidine residues,"[1]; 20 mM or 40 mM DEPC, pH 6.0, 25° C., 1.0 h",completely inactivated; also recorded: complete enzyme inactivation
CC(C)O [propan-2-ol],Vmaxapp,[2],47 U mg^-1
same,Km,[2],1100 µM
[Cl][Ni][Cl] [NiCl2],"recovered activity of DTNB-inactivated enzyme with DTT plus added metal salt, of the initial activity",[1]; 60° C.,15%
"O=C([O-])CN(CCN(CC(=O)[O-])CC(=O)O)CC(=O)[O-].[Na+].[Na+].[Na+] [EDTA, (ethylenedinitrilo) tetraacetic acid trisodium salt]",effect on enzyme reactivation by DTT after DTNB inactivation,[1]; trisodium salt,did not affect enzyme reactivation by DTT; also recorded: inability of EDTA to reduce the rate of reactivation
[Cl][Mn][Cl] [MnCl2],effect on enzyme reactivation by DTT after DTNB inactivation,[1],did not affect enzyme reactivation by DTT
[Cl-].[Cl-].[Zn+2] [ZnCl2],activity recovery of DTNB-inactivated enzyme with DTT plus zinc,[1]; in the presence of ZnCl2,up to 48%
same,inactivation and recovery of activity of T. brockii 2° Adh,T. brockii 2° Adh,recovered activity only in the presence of ZnCl2
O=C(O)c1cc[c]([Hg][Cl])cc1 [p-chloromercuribenzoate],inactivation and recovery of activity of T. brockii 2° Adh,T. brockii 2° Adh,inactivated
O=S(=O)([O-])[O-].[Cd+2] [CdSO4],effect on enzyme reactivation by DTT after DTNB inactivation,[1],did not affect enzyme reactivation by DTT
[Cl-].[Cl-].[Co+2] [CoCl2],"recovered activity of DTNB-inactivated enzyme with DTT plus added metal salt, of the initial activity",[1]; 60° C.,10%
"C. beijerinckii 2° Adh: mesophilic NADP(H)-dependent secondary-alcohol dehydrogenase of Clostridium beijerinckii (protein, UniProt P25984 1-351, looked up) NADP-dependent isopropanol …: MKGFAMLGINKLGWIEKERPVAGSYDAIVRPLAVSPCTSDIHTVFEGALGDRKNMILGHEAVGEVVEVGSEVKDFKPGDRVIVPCTTPDWRSLEVQAGFQQHSNGMLAGWKFSNFKDGVFGEYFHVNDADMNLAILPKDMPLENAVMITDMMTTGFHGAELADIQMGSSVVVIGIGAVGLMGIAGAKLRGAGRIIGVGSRPICVEAAKFYGATDILNYKNGHIVDQVMKLTNGKGVDRVIMAGGGSETLSQAVSMVKPGGIISNINYHGSGDALLIPRVEWGCGMAHKTIKGGLCPGGRLRAEMLRDMVVYNRVDLSKLVTHVYHGFDHIEEALLLMKDKPKDLIKAVVIL",time to complete inactivation,[3],≤ 10 min
same,time to complete inactivation,[3]; listed as C. beijerinckii,≤ 10 min
recombinant T. ethanolicus 2° Adh (Thermoanaerobacter pseudethanolicus ATCC 33223) (protein) MKGFAMLSIGKVGWIEKEKPAPGPFDAIVRPLAVAPCTSDIHTVFEGAIGERHNMILGHEAVGEVVEVGSEVKDFKPGDRVVVPAITPDWRTSEVQRGYHQHSGGMLAGWKFSNVKDGVFGEFFHVNDADMNLAHLPKEIPLEAAVMIPDMMTTGFHGAELADIELGATVAVLGIGPVGLMAVAGAKLRGAGRIIAVGSRPVCVDAAKYYGATDIVNYKDGPIESQIMNLTEGKGVDAAIIAGGNADIMATAVKIVKPGGTIANVNYFGEGEVLPVPRLEWGCGMAHKTIKGGLCPGGRLRMERLIDLVFYKRVDPSKLVTHVFRGFDNIEKAFMLMKDKPKDLIKPVVILA,activity retained after incubation,[3]; incubation for 30 minutes at 91° C.,40%
same,Km,[4],11 µM
"T. ethanolicus 39E 2° Adh: thermophilic NADP(H)-dependent secondary-alcohol dehydrogenase of Thermoanaerobacter ethanolicus 39E (SEQ ID NO: 2), adhB gene expressed in E. coli, homotetramer (protein) MKGFAMLSIGKVGWIEKEKPAPGPFDAIVRPLAVAPCTSDIHTVFEGAIGERHNMILGHEAVGEVVEVGSEVKDFKPGDRVVVPAITPDWWTSEVQRGYHQHSGGMLAGWKFSNVKDGVFGEFFHVNDADMNLAHLPKEIPLEAAVMIPDMMTTGFHGAELADIELGATVAVLGIGPVGLMAVAGAKLRGAGRIIAVGSRPVCVDAAKYYGATDIVNYKDGPIESQIMNLTEGKGVDAAIIAGGNADIMATAVKIVKPGGTIANVNYFGEGEVLPVPRLEWGCGMAHKTIKGGLCPGGRLRMERLIDLVFYKPVDPSKLVTHVFQGFDNIEKAFMLMKDKPKDLIKPVVILA",thermostability and thermophilicity compared with other 2° Adhs,[5],more thermostable and thermophilic
same,half-life,"[5]; at 90° C., recombinant enzyme",1.7 h
same,time for which detectable activity was retained,[5]; incubated at 90° C.,retained detectable activity for more than one hour
same,activity retained after incubation,[5]; incubation for more than one hour at 90° C.,100%
same,"difference between activation energies above and below the discontinuity (Δ), ethanol oxidation relative to propan-2-ol oxidation",[6],at least 3 fold
same,initial activity,[6]; before DTNB modification,54±3.0 U mg^-1
same,Arrhenius plot form,"[6]; ethanol oxidation, enzyme incubated at 55° C. prior to assay (FIG. 2B)",distinct discontinuity
same,Arrhenius plot discontinuity temperature,[6]; ethanol oxidation,~ 46 °C
same,temperature range of activity,"[6]; propan-2-ol oxidation, recombinant enzyme (FIG. 2A)",detected below 25 °C and increased to beyond 90 °C
same,Arrhenius plot form,"[6]; propan-2-ol oxidation, enzyme incubated at 55° C. prior to assay",linear from 25 °C to 90 °C
same,Arrhenius plot discontinuity temperature,[6]; propan-2-ol oxidation,~ 55 °C
